Each molecule was assayed against T1, vitronectin receptor αvβ3 (Homo sapiens, UniProt P05106+P06756) (assay: Inhibition of fibrinogen binding to immobilised vitronectin receptor αvβ3 (ELISA)). Details: fibrinogen 1.5 µg/ml, receptor from human placenta coated on microtitre plates, overnight at room temperature, ELISA detection; read-out: VNR IC50.
T1 construct: Human placenta is stored at -80°C immediately after its excision; In order to extract the receptor; from tissue; host or cells: human placenta
T1 sequence (P06756 31-889 limits assumed): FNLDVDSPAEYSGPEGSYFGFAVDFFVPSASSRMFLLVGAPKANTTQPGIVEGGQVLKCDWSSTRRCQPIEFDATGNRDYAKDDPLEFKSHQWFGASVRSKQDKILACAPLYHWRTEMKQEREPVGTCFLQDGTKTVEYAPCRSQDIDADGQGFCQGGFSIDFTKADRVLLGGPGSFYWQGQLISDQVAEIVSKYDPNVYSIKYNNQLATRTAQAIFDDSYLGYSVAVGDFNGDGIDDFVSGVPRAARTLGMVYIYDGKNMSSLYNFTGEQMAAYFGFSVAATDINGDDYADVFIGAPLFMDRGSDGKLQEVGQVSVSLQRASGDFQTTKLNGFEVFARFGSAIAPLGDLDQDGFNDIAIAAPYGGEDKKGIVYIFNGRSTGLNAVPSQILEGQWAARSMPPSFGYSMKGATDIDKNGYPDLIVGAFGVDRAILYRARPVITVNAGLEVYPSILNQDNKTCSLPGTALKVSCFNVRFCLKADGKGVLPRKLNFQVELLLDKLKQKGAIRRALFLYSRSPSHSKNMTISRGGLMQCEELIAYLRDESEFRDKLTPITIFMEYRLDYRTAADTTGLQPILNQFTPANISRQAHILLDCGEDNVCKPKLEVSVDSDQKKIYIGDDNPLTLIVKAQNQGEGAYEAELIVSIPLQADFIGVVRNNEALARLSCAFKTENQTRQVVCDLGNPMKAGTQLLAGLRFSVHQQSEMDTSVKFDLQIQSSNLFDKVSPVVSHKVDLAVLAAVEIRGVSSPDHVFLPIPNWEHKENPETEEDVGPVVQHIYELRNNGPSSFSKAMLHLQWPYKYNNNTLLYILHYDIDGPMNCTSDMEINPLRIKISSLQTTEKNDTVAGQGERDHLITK
T1 sequence (P06756 891-1048 partner limits assumed): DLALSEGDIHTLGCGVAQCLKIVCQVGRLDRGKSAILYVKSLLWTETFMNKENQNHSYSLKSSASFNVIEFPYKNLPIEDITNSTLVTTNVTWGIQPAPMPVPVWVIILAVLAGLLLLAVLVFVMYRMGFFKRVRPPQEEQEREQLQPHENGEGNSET
T1 sequence (P05106 27-788): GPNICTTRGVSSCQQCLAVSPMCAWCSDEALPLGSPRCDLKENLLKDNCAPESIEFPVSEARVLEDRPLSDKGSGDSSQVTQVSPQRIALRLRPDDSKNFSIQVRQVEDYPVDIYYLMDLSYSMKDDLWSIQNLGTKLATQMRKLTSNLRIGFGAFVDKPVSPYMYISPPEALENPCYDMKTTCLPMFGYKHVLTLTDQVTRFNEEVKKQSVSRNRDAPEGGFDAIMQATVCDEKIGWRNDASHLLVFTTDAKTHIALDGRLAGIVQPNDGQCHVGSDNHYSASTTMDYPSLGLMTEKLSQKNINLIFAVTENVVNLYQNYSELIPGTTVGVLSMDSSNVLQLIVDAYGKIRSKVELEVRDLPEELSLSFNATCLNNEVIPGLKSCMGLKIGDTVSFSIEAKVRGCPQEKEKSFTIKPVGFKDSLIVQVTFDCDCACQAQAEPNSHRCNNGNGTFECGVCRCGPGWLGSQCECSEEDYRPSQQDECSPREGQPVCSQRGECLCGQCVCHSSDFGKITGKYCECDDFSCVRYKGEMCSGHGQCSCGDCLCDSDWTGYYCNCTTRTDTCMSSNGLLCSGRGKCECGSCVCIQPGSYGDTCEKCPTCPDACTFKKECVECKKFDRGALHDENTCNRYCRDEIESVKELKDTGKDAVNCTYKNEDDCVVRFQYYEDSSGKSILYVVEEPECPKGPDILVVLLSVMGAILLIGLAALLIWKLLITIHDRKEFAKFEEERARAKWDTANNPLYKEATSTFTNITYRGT
Experimental: The inhibition of the binding of adhesive proteins such as e.g. fibrinogen to vitronectin receptors (such as e.g. αvβ3, αvβ5, αvβ6, αvβ8, etc. or to the fibrinogen receptor (αIIbβ3) by compounds of formula I can be determined as described by L. Alig et al. (J.Med.Chem. 1992, 35, 4393-4407).
In detail thereto, the wells of microtitre plates (Nunc-Immunoplate MaxiSorp) were coated overnight at 4°C with the vitronectin receptor αvβ3 (from human placenta, 100 µl/well) in a buffer system with 150 mmol/l NaCl, 1 mmol/CaCl2, 1 mmol/l MgCl2, 0.0005% Triton X-100 and 20 mmol/l Tris HCl, pH 7.4. The non-specific binding sites were blocked by incubation with 3.5% bovine serum albumin (BSA from Fluka) at 20°C for at least 1 h. Before the beginning of the test the plates were washed in each case once with 150 mmol/l NaCl, 1 mmol/l CaCl2, 1 mmol/l MgCl2 and 20 mmol/l Tris HCI, pH 7.4 (buffer A). The thus-coated plates can be stored for at least 2 months in the presence of 0.05% NaN3 (in buffer A) at 4°C in a humidity chamber without loss of binding activity. Fibrinogen (IMCO, free from fibronectin) was diluted to 1.5 µg/ml in buffer A in the presence of 1% BSA. The wells coated with the receptor were incubated with fibrinogen (100 µl/well) overnight at room temperature in the absence of or in the presence of increasing concentrations of RGDS (as the reference substance) or the compounds to be measured. Non-bound fibrinogen was removed by three-fold washing with buffer A and bound fibrinogen was detected by an ELISA procedure. Antibodies of rabbits directed against human fibrinogen (Dakopatts, Denmark), diluted in buffer A in the presence of 0.1% BSA, were added at room temperature for 1h., followed by incubation with biotinylated antibodies directed against rabbit immunoglobulin (Amersham) for 30 min. Non-bound antibodies were removed by three-fold washing with buffer A. Thereafter, the pre-formed streptavidin-biotinylated peroxidase complex (Amersham) was added for 30 min. Three-fold washing with buffer A was again carried out. After addition of the peroxidase substrate ABTS (2,2'-azino-bis(3-ethylbenzothiazoline-6-sulphonic acid), Boehringer Mannheim) the enzyme activity was measured with a multichannel photometer (UVmax, Molecular Devices). The difference between total binding activity (in the absence of a test substance) and non-specific binding activity (in the presence of 100 µM RGDS) is taken as the specific binding activity. The concentration of a test substance which is required to inhibit the specific binding activity by 50% was defined as the IC50.
The isolation of the receptor avb3 used in the test can be carried out as follows: Human placenta is stored at -80°C immediately after its excision. In order to extract the receptor, each placenta is superficially thawed and cut into narrow strips with a scalpel. The pieces are washed twice with a buffer of 150 mmol/l NaCl, 1 mmol/l CaCl2, 1 mmol/l MgCl2 and 20 mmol/l Tris HCl (pH 7.4). The proteins are extracted at room temperature for one hour with a buffer solution from 1% Triton X-100, 150 mmol/l NaCl, 1 mmol/l CaCl2, 1 mmol/l MgCl2, 20 mmol/l Tris HCl, 0.02% NaN3, 0.5 mmol/l phenylmethanesulphonyl fluoride, 1 mmol/l leupeptin and 2 mmol/l N-ethylmaleimide (pH 7.4) and filtered through sterile gauze. The filtrate is centrifuged at 30000 g for 30 min. at 4°C. The glycoproteins are firstly separated with the aid of a concanavalin A-Sepharose 4B column. The proteins bound to the column are eluted and then added to a Aeg-RGDS column. After repeated washing the bound vitronectin receptor is eluted by 3 mmol/l RGDS in a buffer of 0.1% Triton X-100, 150 mmol/l NaCl, 20 mmol/l Tris HCl, 1 mmol/l CaCl2, 1 mmol/l MgCl2, 0.05% NaN3 (pH 7.0).

| IC50 | Structure (SMILES) |
| --- | --- |
| 39 nM | Cc1nc(N=C(N)N)sc1C(=O)N1CCCC(COCC(=O)O)C1 (racemic) [rac [1-(2-guanidino-4-methyl-thiazole-5-carbonyl)-piperidin-3-ylmethoxy]-acetic acid] |
| 70 nM | NC(N)=Nc1nc(-c2ccccc2)c(C(=O)N2CCCC(COCC(=O)O)C2)s1 (racemic) [rac [1-(2-guanidino-4-phenyl-thiazole-5-carbonyl)-piperidin-3-ylmethoxy]-acetic acid] |
| 18 nM | CCCc1nc(N=C(N)N)sc1C(=O)N1CCCC(COCC(=O)O)C1 (racemic) [rac [1-(2-guanidino-4-propyl-thiazole-5-carbonyl)-piperidin-3-ylmethoxy]-acetic acid] |
| 90 nM | NC(N)=Nc1nc(C2CCCC2)c(C(=O)N2CCCC(COCC(=O)O)C2)s1 (racemic) [rac [1-(4-cyclopentyl-2-guanidino-thiazol-5-ylcarbonyl)-piperidin-3-ylmethoxy]-acetic acid] |
| 22 nM | CC(C)(C)c1nc(N=C(N)N)sc1C(=O)N1CCCC(COCC(=O)O)C1 (racemic) [rac [1-(4-tert-butyl-2-guanidino-thiazole-5-carbonyl)-piperidin-3-ylmethoxy]-acetic acid] |
| 50 nM | Cc1nc(NC(=N)N)sc1C(=O)N1CCC[C@@H](COCC(=O)O)C1 [(R)-[1-(2-guanidino-4-methyl-thiazole-5-carbonyl)-piperidin-3-ylmethoxy]-acetic acid] |

Source: EP0928793B1, “Thiazole derivatives” (F. HOFFMANN-LA ROCHE AG, priority 1998, dated 1999)
